Measurements from US20220213092A1, “BICYCLIC PYRAZOLE BRUTON'S TYROSINE KINASE INHIBITORS” (AbbVie Inc., priority 2020, published 2022).
Read-outs that look alike come from different tables or passages of the source.

Key:
Format in all cases: biochemical
TEC = target: T1, TEC (Homo sapiens, UniProt P42680); experiment: Other kinase MSA: TEC
T1 sequence (P42680 1-631): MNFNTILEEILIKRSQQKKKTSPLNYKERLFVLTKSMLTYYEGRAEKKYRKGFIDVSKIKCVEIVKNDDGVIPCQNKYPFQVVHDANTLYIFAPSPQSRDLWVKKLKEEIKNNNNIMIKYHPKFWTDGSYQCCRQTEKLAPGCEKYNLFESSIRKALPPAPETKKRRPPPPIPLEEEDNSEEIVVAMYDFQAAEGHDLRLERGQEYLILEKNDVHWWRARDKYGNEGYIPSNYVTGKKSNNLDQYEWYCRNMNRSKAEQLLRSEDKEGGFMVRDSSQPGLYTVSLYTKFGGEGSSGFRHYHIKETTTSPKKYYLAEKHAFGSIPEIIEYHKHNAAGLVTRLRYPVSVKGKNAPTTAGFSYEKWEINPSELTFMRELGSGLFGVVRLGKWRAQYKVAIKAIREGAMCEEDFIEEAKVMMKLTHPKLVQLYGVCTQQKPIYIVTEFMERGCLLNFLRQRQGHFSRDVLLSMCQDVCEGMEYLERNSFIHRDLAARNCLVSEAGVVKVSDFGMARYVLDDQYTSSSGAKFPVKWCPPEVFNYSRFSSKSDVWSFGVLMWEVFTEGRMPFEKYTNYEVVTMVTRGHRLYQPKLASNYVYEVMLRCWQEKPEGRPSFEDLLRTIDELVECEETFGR
Procedure: (§1) Kinase activity, unless otherwise indicated, was measured in vitro using an electrophoretic mobility shift assay (MSA). The phosphorylation of a peptide substrate by BTK and other kinases was measured. The kinase reactions were assembled in a total volume of 25 μL per well in 384 well plates. The following was added to each well: compound buffer (or control); enzyme buffer; and substrate buffer, as further described below. […]
(§2) Enzyme and compound/inhibitor were optionally pre-incubated. […] The kinase activity for the kinases in Table 3 were measured at 3 hours incubation time, except that in the case of MAP2K1 and MAP2K2 assay, pre-activation of ERK was done for 30 min with 6 μM of ATP, and then the detection of activated ERK in the presence of compounds was done after 60 minutes of incubation.
(§3) The terminated reactions were analyzed using a 12 channel LABCHIP® 3000 microfluidic detection instrument (available from Caliper Life Sciences, Waltham, Mass.). […] As substrate and product peptides were separated, two peaks of fluorescence were observed. Change in the relative fluorescence intensity of the substrate and product peaks was the parameter measured, reflecting enzyme activity. […] Capillary electrophoregrams (RDA acquisition files) were analyzed using HTS Well Analyzer software (available from Caliper Life Sciences, Waltham, Mass.). […]

TXK = target: T2, TXK (Homo sapiens, UniProt P42681); experiment: Other kinase MSA: TXK
T2 sequence (P42681 1-527): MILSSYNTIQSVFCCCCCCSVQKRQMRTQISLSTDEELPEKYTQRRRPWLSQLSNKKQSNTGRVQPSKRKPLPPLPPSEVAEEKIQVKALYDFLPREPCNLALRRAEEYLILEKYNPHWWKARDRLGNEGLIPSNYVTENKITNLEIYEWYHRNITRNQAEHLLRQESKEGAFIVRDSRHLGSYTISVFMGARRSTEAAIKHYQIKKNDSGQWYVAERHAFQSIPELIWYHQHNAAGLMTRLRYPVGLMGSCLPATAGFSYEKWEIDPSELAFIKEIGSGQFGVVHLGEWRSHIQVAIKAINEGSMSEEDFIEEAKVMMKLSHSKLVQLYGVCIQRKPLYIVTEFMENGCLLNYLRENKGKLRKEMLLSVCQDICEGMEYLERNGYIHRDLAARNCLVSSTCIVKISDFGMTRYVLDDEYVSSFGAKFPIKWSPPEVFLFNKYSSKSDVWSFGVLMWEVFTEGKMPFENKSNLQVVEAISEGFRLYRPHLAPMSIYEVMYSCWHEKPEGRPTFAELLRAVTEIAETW
Procedure: as §1, §2, §3

MAP2K2 = MAP2K2 (Homo sapiens, UniProt P36507); experiment: Other kinase MSA: MAP2K2; conditions: 30 μM ATP, ERKtide substrate; pre-activation of ERK 30 min, detection after 60 minutes; read-out: IC50, Enzyme MAP2K2
Sequence of MAP2K2 (P36507 whole entry, species assumed): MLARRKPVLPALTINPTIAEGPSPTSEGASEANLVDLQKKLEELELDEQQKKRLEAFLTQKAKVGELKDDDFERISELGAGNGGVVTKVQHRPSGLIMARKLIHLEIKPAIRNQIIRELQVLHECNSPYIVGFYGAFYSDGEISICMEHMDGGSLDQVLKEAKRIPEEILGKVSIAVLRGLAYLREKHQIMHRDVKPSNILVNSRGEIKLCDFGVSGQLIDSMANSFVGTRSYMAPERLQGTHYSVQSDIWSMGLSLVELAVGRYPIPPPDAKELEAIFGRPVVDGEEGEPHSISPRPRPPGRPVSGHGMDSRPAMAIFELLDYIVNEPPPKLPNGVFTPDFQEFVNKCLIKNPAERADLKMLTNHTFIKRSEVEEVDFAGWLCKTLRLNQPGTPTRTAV
Procedure: as §1, §2, §3

IC50 (TEC; 50 μM ATP, SRCtide substrate, 3 hours, read-out: IC50, Enzyme TEC) | IC50 (TXK; 100 μM ATP, SRCtide substrate, 3 hours, read-out: IC50, Enzyme TXK) | IC50 (MAP2K2) | IC50 (TEC) | IC50 (TXK) | Structure (SMILES)
0.0008 µM | 0.0019 µM | 0.075 µM |  |  | C=CC(=O)N1CCC([C@@H]2CCNc3c(C(N)=O)c(-c4ccc(Oc5ccccc5)cc4)nn32)CC1 [Compound A, reference compound]
 |  | 7.8 µM | 0.0147 µM | 0.222 µM | C=CC(=O)N1CCN([C@@H]2CCNc3c2nn(-c2ccc(Oc4ccccc4)cc2)c3C(N)=O)CC1 [Example 6, (7R)-2-(4-phenoxyphenyl)-7-[4-(prop-2-enoyl)piperazin-1-yl]-4,5,6,7-tetrahydro-2H-pyrazolo[4,3-b]pyridine-3-carboxamide]
